Consider 13 compounds from patent US11021481B2, “Substituted isoindolin-1-ones and 2,3-dihydro-1h-pyrrolo[3,4-c]pyridin-1-ones as HPK1 antagonists” (Nimbus Saturn, Inc., priority 2019, dated 2021).

For the test, the target named is HPK1 (Homo sapiens (Human), UniProt Q92918). Put plainly: HPK1 biochemical enzyme assay (microfluidic mobility shift assay). Conditions: 1.5 nM HPK1, ATP 1 mM final, 30 min preincubation, 60 min at RT, Caliper EZ Reader; read-out: HPK1 1000UMATP caliper IC50. Summed up: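 Ten-point compound titrations (top 3 μM final) preincubated 30 min with HPK1 and substrate, then reaction started with 1 mM ATP and 1 μM substrate, 5 mM MgCl2. After 60 min at RT, reaction terminated and product measured by microfluidic mobility shift.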
Sequence of HPK1 (Q92918 whole entry): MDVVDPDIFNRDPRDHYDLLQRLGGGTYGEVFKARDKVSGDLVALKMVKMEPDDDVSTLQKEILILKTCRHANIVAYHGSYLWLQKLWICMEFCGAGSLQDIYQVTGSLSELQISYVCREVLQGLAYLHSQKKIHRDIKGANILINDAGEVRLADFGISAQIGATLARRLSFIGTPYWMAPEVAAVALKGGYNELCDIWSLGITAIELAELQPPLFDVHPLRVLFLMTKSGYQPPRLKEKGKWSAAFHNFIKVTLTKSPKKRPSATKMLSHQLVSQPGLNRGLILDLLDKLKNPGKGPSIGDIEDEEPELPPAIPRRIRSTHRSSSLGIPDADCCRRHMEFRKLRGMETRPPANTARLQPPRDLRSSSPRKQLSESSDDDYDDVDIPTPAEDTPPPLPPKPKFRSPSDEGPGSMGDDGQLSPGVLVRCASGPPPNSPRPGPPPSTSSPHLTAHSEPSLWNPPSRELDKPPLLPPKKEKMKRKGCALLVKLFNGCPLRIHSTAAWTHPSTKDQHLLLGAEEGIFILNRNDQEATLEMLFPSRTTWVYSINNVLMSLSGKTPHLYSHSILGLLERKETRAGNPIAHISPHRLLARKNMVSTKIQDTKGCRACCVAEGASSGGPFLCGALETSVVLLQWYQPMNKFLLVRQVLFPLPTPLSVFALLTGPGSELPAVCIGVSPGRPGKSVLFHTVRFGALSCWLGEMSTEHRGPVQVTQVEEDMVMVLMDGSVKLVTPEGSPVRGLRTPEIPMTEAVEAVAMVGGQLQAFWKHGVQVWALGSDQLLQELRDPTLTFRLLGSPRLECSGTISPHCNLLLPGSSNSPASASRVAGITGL
A word on the IC50: it is the concentration that gives 50% inhibition. Take `N#Cc1ccn2c(-c3ccc(Nc4ccc(N5CCC(O)CC5)cn4)c4c3CNC4=O)cnc2c1` [I-182, 3-[7-[[5-(4-hydroxy-1-piperidyl)-2-pyridyl]amino]-1-oxo-isoindolin-4-yl]imidazo[1,2-a]pyridine-7-carbonitrile]: the IC50 was under 0.1 µM. Next, `N#Cc1ccn2c(-c3ccc(Nc4ccc(N5CCOCC5)cn4)c4c3CNC4=O)cnc2c1` [I-183, 3-[7-[(5-morpholino-2-pyridyl)amino]-1-oxo-isoindolin-4-yl]imidazo[1,2-a]pyridine-7-carbonitrile]: under 0.1 µM. With `Cc1cnn2c(-c3ccc(Nc4ccc(N5CCC(O)CC5)cn4)c4c3CNC4=O)cnc2c1` [I-184, 7-[[5-(4-hydroxy-1-piperidyl)-2-pyripyl]amino]-4-(7-methylimidazo [1,2-b]pyridazin-3-yl)isoindolin-1-one], the IC50 is under 0.1 µM.

On to `CCOc1c(C#N)ccn2c(-c3ccc(Nc4ccc(N5CCC(O)CC5)cn4)c4c3CNC4=O)cnc12` [I-185, 8-ethoxy-3-[7-[[5-(4-hydroxy-1-piperidyl)-2-pyripyl]amino]-1-oxo-isoindolin-4-yl]imidazo[1,2-a]pyridine-7-carbonitrile], for which the IC50 is 0.1 to 1 µM.

Take `O=C1NCc2c(-c3cnc4cc(Cl)ccn34)ccc(Nc3ccc(N4CCC(O)CC4)cn3)c21` [I-187, 4-(7-chloroimidazo [1,2-a]pyridin-3-yl)-7-[[5-(4-hydroxy-1-piperidyl)-2-pyridyl]amino] isoindolin-1-one]: the IC50 was under 0.1 µM. Next, `N#Cc1ccn2c(-c3ccc(Nc4ccc(N5CCC(O)CC5)cn4)c4c3CNC4=O)cnc2c1F` [I-188, 8-fluoro-3-[7-[[5-(4-hydroxy-1-piperidyl)-2-pyridyl]amino]-1-oxo-isoindolin-4-yl]imidazo[1,2-a]pyridine-7-carbonitrile]: under 0.1 µM; `N#Cc1ccn2c(-c3ncc(Nc4ccc(N5CCOCC5)cn4)c4c3CNC4=O)cnc2c1` [I-189, 3-[7-[(5-morpholino-2-pyridyl)-amino]-1-oxo-2,3-dihydropyrrolo [3,4-c]pyridin-4-yl]imidazo[1,2-a]pyridine-7-carbonitrile]: 0.1 to 1 µM. Take `Cn1ccc2c(-c3c(Cl)cc(Nc4ccc(N5CCC(O)CC5)cn4)c4c3CNC4=O)ccnc21` [I-190, 5-chloro-7-[[5-(4-hydroxy-1-piperidyl)-2-pyridyl]amino]-4-(1-methylpyrrolo[2,3-b]pyridin-4-yl)isoindolin-1-one]: the IC50 was under 0.1 µM. For the compound `Cc1ccn2c(-c3ccc(Nc4ccc([C@H]5CCOC5)cn4)c4c3CNC4=O)cnc2c1` [I-191, (R)-4-(7-methylimidazo [1,2-a]pyridin-3-yl)-7-((5-(tetrahydro-furan-3-yl)pyridin-2-yl)amino)isoin-dolin-1-one], the IC50 was under 0.1 µM. Take `Cc1ccn2c(-c3ccc(Nc4ccc([C@@H]5CCOC5)cn4)c4c3CNC4=O)cnc2c1` [I-192, (S)-4-(7-methylimidazo [1,2-a]pyridin-3-yl)-7-((5-(tetrahydro-furan-3-yl)pyridin-2-yl)amino)isoin-dolin-1-one]: the IC50 is under 0.1 µM. For `O=C1NCc2c(-c3ccnc4[nH]ccc34)ncc(Nc3ccc(N4CCC(O)CC4)cn3)c21` [I-193, 7-[[5-(4-hydroxy-1-piperidyl)-2-pyridyl]-amino]-4-(1H-pyrrolo[2,3-b]pyridin-4-yl)-2,3-dihydropyrrolo [3,4-c]pyridin-1-one], the IC50 was under 0.1 µM. For the compound `O=C1NCc2c(-c3cnc4cc(C(F)F)ccn34)ccc(Nc3ccc(N4CCC(O)CC4)cn3)c21` [I-194, 4-[7-(difluorometh-yl)imidazo[1,2-a]pyridin-3-yl]-7-[[5-(4-hydroxy-1-piperidyl)-2-pyripyl]amino] isoindolin-1-one], the IC50 is under 0.1 µM. Regarding `CCNC(=O)c1ccn2c(-c3ccc(Nc4ccc(N5CCC(O)CC5)cn4)c4c3CNC4=O)cnc2c1` [I-195, N-ethyl-3-[7-[[5-(4-hydroxy-1-piperidyl)-2-pyridyl]amino]-1-oxo-isoindolin-4-yl]imidazo[1,2-a]pyridine-7-carboxamide], the IC50 fell in the range of 0.1 to 1 µM.
